Earlier results, collected in patent US20230390251A1, “METHODS OF TREATING RIBONUCLEOTIDE REDUCTASE-RELATED DISEASES WITH A RIBONUCLEOTIDE REDUCTASE INHIBITOR” (TAIHO PHARMACEUTICAL CO., LTD., priority 2020, published 2023).

Assays:
[1] = from the literature (NPL 10); off-target effect on Fe ion-containing proteins; cited from earlier work
[2] = molecular target: T1, Ribonucleotide reductase (RNR) (Homo sapiens, UniProt P23921+P31350); settings: from the literature (NPL 7; PL 1); cited from earlier work
T1 sequence (P23921 1-792): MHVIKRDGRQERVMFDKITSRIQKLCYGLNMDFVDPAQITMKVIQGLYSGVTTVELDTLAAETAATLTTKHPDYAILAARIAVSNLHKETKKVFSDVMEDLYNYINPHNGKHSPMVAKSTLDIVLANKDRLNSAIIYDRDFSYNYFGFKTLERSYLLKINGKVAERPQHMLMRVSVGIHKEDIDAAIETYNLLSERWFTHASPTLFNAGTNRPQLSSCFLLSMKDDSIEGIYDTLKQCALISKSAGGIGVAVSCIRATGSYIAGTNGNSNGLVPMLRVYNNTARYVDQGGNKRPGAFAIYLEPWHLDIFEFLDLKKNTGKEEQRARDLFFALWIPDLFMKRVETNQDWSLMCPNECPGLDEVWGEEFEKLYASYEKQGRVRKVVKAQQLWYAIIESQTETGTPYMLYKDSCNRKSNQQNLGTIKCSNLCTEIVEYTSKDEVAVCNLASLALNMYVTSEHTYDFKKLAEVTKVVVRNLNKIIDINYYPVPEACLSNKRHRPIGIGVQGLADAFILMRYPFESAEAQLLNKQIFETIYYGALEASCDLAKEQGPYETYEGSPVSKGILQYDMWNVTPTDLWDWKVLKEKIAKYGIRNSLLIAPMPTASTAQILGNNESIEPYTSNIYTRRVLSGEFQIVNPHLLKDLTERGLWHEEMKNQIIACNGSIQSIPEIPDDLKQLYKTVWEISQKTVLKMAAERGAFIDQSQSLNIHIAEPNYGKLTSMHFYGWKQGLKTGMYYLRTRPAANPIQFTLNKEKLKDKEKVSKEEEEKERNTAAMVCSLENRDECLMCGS
T1 sequence (P31350 1-389): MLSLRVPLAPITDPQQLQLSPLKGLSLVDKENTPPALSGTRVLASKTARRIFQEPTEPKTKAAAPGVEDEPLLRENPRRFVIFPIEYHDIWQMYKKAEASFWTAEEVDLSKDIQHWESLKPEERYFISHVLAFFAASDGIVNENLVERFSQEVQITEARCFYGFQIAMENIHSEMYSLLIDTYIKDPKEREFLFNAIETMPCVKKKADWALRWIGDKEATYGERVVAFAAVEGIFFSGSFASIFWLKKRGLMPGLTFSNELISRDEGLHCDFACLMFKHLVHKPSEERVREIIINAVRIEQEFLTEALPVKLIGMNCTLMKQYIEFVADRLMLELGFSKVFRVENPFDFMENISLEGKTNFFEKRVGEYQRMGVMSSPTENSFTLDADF

NC(=S)NN=Cc1ncccc1N [Compound 3-AP, 3-aminopyridine-2-carboxaldehyde thiosemicarbazone]
side effects in clinical cases [1]: side effects such as hypoxia, dyspnea, methemoglobinemia

NC(=O)NO [HU, hydroxyurea, reference compound]
RNR inhibitory activity [2]: weak
